Reference: PubChem BioAssay AID248 (DTP/NCI, 2004)
Values joined by “and” are separate entries in the source; they are usually repeats but may differ in a detail not shown here. Equal values may be shown once. Inconclusive results and toxic doses are left out.

Test system: L1210 leukemia ip in BDF1 mice, survival T/C
Assay: NCI In Vivo Anticancer Drug Screen. Data for tumor model L1210 Leukemia (intraperitoneal) in B6D2F1 (BDF1) mice
Conditions: endpoint: mean survival time, higher = longer survival
Summary of the method: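 Mice bearing the transplanted tumor received compound or vehicle. Survival of the treated group was divided by that of the vehicle-treated control group to give the ratio.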

[1] = dose: 100.0 mg/kg/injection, schedule: Q01DX001 (ip), vehicle: carboxymethylcellulose (CMC)
[2] = dose: 200.0 mg/kg/injection, schedule: Q01DX001 (ip), vehicle: carboxymethylcellulose (CMC)
[3] = dose: 400.0 mg/kg/injection, schedule: Q01DX001 (ip), vehicle: carboxymethylcellulose (CMC)
[4] = dose: 25.0 mg/kg/injection, schedule: Q01DX001 (ip), vehicle: Klucel (hydroxypropylcellulose) (HPC)
[5] = dose: 50.0 mg/kg/injection, schedule: Q01DX001 (ip), vehicle: Klucel (hydroxypropylcellulose) (HPC)
[6] = dose: 100.0 mg/kg/injection, schedule: Q01DX001 (ip), vehicle: Klucel (hydroxypropylcellulose) (HPC)
[7] = dose: 100.0 mg/kg/injection, schedule: Q04DX003 (ip), vehicle: Klucel (hydroxypropylcellulose) (HPC)
[8] = dose: 200.0 mg/kg/injection, schedule: Q04DX003 (ip), vehicle: Klucel (hydroxypropylcellulose) (HPC)
[9] = dose: 400.0 mg/kg/injection, schedule: Q04DX003 (ip), vehicle: Klucel (hydroxypropylcellulose) (HPC)
[10] = dose: 100.0 mg/kg/injection, schedule: Q04DX002 (ip), vehicle: Klucel (hydroxypropylcellulose) (HPC)
[11] = dose: 200.0 mg/kg/injection, schedule: Q04DX002 (ip), vehicle: Klucel (hydroxypropylcellulose) (HPC)
[12] = dose: 400.0 mg/kg/injection, schedule: Q04DX002 (ip), vehicle: Klucel (hydroxypropylcellulose) (HPC)
[13] = dose: 100.0 mg/kg/injection, schedule: Q04DX003 (ip), vehicle: saline with Tween-80

## NNC(=O)CCC(N)C(=O)O (stereo unspecified)
dose: 10.77 mg/kg/injection, schedule: Q01DX Z (ip), vehicle: carboxymethylcellulose (CMC)
  T/C: 94 % of control
dose: 21.53 mg/kg/injection, schedule: Q01DX Z (ip), vehicle: carboxymethylcellulose (CMC)
  T/C: 95 % of control
dose: 43.05 mg/kg/injection, schedule: Q01DX Z (ip), vehicle: carboxymethylcellulose (CMC)
  T/C: 104 % of control
dose: 86.1 mg/kg/injection, schedule: Q01DX Z (ip), vehicle: carboxymethylcellulose (CMC)
  T/C: 111 % of control and 124 % of control

## N#CC(Nc1c(N)nc(N)nc1N)c1ccc(N(CCCl)CCCl)cc1 (stereo unspecified)
dose: 50.0 mg/kg/injection, schedule: Q01DX001 (ip), vehicle: carboxymethylcellulose (CMC)
  T/C: 105 % of control
[1]
  T/C: 103 % of control
[2]
  T/C: 103 % of control
[3]
  T/C: 100 % of control

## Nc1ccc(CCc2nc(N)[nH]c(=O)c2CCCCc2ccccc2)cc1
[4]
  T/C: 98 % of control
[5]
  T/C: 96 % of control
[6]
  T/C: 88 % of control

## O=C(Nc1c(Br)cc2c(c1Br)Cc1cc([N+](=O)[O-])ccc1-2)C(Cl)Cl
[1]
  T/C: 98 % of control
[2]
  T/C: 107 % of control
[3]
  T/C: 109 % of control

## CCCCCCCCCCCCCCCCSc1ccc(C)cc1
dose: 100.0 mg/kg/injection, schedule: Q01DX009 (ip), vehicle: other
  T/C: 88 % of control
[7]
  T/C: 89 % of control
dose: 200.0 mg/kg/injection, schedule: Q01DX009 (ip), vehicle: other
  T/C: 88 % of control
[8]
  T/C: 93 % of control
dose: 400.0 mg/kg/injection, schedule: Q01DX009 (ip), vehicle: other
  T/C: 112 % of control
[9]
  T/C: 96 % of control

## CN(C(=S)c1ccc(Cl)cc1)c1ccccc1
[6]
  T/C: 103 % of control
[7]
  T/C: 92 % of control
dose: 200.0 mg/kg/injection, schedule: Q01DX001 (ip), vehicle: Klucel (hydroxypropylcellulose) (HPC)
  T/C: 98 % of control
[8]
  T/C: 102 % of control
dose: 400.0 mg/kg/injection, schedule: Q01DX001 (ip), vehicle: Klucel (hydroxypropylcellulose) (HPC)
  T/C: 103 % of control
[9]
  T/C: 97 % of control

## CNC(=O)Oc1ccccc1C(C)C
[10]
  T/C: 91 % of control
[11]
  T/C: 94 % of control
[12]
  T/C: 95 % of control and 98 % of control

## O=C(Nc1cccc(NC(=O)Nc2cc(C(O)=Nc3ccc(C4=NCCN4)cc3)ccc2C(O)=Nc2ccc(C3=NCCN3)cc2)c1)Nc1cc(C(O)=Nc2ccc(C3=NCCN3)cc2)ccc1C(O)=Nc1ccc(C2=NCCN2)cc1
dose: 15.0 mg/kg/injection, schedule: Q01DX Z (ip), vehicle: saline
  T/C: 92 % of control
dose: 30.0 mg/kg/injection, schedule: Q01DX Z (ip), vehicle: saline
  T/C: 97 % of control
dose: 60.0 mg/kg/injection, schedule: Q01DX Z (ip), vehicle: saline
  T/C: 102 % of control
dose: 120.0 mg/kg/injection, schedule: Q01DX Z (ip), vehicle: saline
  T/C: 105 % of control

## CN(C)C(=S)Oc1c(Cl)cc(S(=O)(=O)F)cc1Cl
dose: 12.5 mg/kg/injection, schedule: Q04DX002 (ip), vehicle: Klucel (hydroxypropylcellulose) (HPC)
  T/C: 98 % of control
dose: 25.0 mg/kg/injection, schedule: Q04DX002 (ip), vehicle: Klucel (hydroxypropylcellulose) (HPC)
  T/C: 105 % of control
dose: 50.0 mg/kg/injection, schedule: Q04DX002 (ip), vehicle: Klucel (hydroxypropylcellulose) (HPC)
  T/C: 109 % of control
[10]
  T/C: 94 % of control
[11]
  T/C: 100 % of control

## NC1CCC1N (stereo unspecified)
dose: 100.0 mg/kg/injection, schedule: Q04DX003 (ip), vehicle: saline
  T/C: 104 % of control
dose: 200.0 mg/kg/injection, schedule: Q04DX003 (ip), vehicle: saline
  T/C: 108 % of control
dose: 400.0 mg/kg/injection, schedule: Q04DX003 (ip), vehicle: saline
  T/C: 98 % of control

## CCC(Cl)COP(=O)(OCC(Cl)CC)OC(c1ccc(Cl)c(Cl)c1)P(=O)(OCC(Cl)CC)OCC(Cl)CC (stereo unspecified)
dose: 50.0 mg/kg/injection, schedule: Q01DX001 (ip), vehicle: saline with Tween-80
  T/C: 95 % of control
dose: 100.0 mg/kg/injection, schedule: Q01DX001 (ip), vehicle: saline with Tween-80
  T/C: 103 % of control
dose: 200.0 mg/kg/injection, schedule: Q01DX001 (ip), vehicle: saline with Tween-80
  T/C: 93 % of control

## C[N+](C)(CCCCCCCCCC[N+](C)(C)Cc1ccccc1)Cc1ccccc1
dose: 1.5 mg/kg/injection, schedule: Q01DX009 (ip), vehicle: saline
  T/C: 106 % of control
dose: 1.5 mg/kg/injection, schedule: Q04DX003 (ip), vehicle: saline
  T/C: 95 % of control
dose: 3.0 mg/kg/injection, schedule: Q01DX009 (ip), vehicle: saline
  T/C: 101 % of control
dose: 3.0 mg/kg/injection, schedule: Q04DX003 (ip), vehicle: saline
  T/C: 97 % of control
dose: 6.0 mg/kg/injection, schedule: Q01DX009 (ip), vehicle: saline
  T/C: 93 % of control
dose: 6.0 mg/kg/injection, schedule: Q04DX003 (ip), vehicle: saline
  T/C: 95 % of control

## O=C(/C=C/c1cccc([N+](=O)[O-])c1)c1ccccc1[N+](=O)[O-]
[10]
  T/C: 103 % of control
[11]
  T/C: 103 % of control
[12]
  T/C: 100 % of control

## CC(NC(=O)Oc1cccc(NC(=O)N(C)C)c1)C(C)(C)C (stereo unspecified)
dose: 100.0 mg/kg/injection, schedule: Q01DX009 (ip), vehicle: saline with Tween-80
  T/C: 109 % of control
dose: 200.0 mg/kg/injection, schedule: Q01DX009 (ip), vehicle: saline with Tween-80
  T/C: 96 % of control
dose: 400.0 mg/kg/injection, schedule: Q01DX009 (ip), vehicle: saline with Tween-80
  T/C: 98 % of control

## COc1cc(N(CCCl)CCCl)c(OC)cc1C=Nc1cccc(F)c1
dose: 12.5 mg/kg/injection, schedule: Q01DX001 (ip), vehicle: Klucel (hydroxypropylcellulose) (HPC)
  T/C: 96 % of control
dose: 13.0 mg/kg/injection, schedule: Q01DX009 (ip), vehicle: carboxymethylcellulose (CMC)
  T/C: 116 % of control
dose: 20.0 mg/kg/injection, schedule: Q01DX001 (ip), vehicle: Klucel (hydroxypropylcellulose) (HPC)
  T/C: 117 % of control
dose: 20.0 mg/kg/injection, schedule: Q01DX009 (ip), vehicle: carboxymethylcellulose (CMC)
  T/C: 120 % of control
[4]
  T/C: 101 % of control
dose: 30.0 mg/kg/injection, schedule: Q01DX009 (ip), vehicle: carboxymethylcellulose (CMC)
  T/C: 118 % of control
[5]
  T/C: 98 % of control
dose: 75.0 mg/kg/injection, schedule: Q01DX001 (ip), vehicle: Klucel (hydroxypropylcellulose) (HPC)
  T/C: 101 % of control and 118 % of control
dose: 177.0 mg/kg/injection, schedule: Q01DX001 (ip), vehicle: carboxymethylcellulose (CMC)
  T/C: 122 % of control
[2]
  T/C: 102 % of control
[3]
  T/C: 153 % of control
dose: 600.0 mg/kg/injection, schedule: Q01DX001 (ip), vehicle: carboxymethylcellulose (CMC)
  T/C: 124 % of control

## COc1ccc(NC(=O)c2ccc(C(=O)Nc3ccc(OC)cc3OC)cc2)c(OC)c1
[10]
  T/C: 90 % of control
[11]
  T/C: 93 % of control and 102 % of control
[12]
  T/C: 93 % of control and 91 % of control

## O=C(COc1ccc(F)cc1)N(CCO)CCO
[10]
  T/C: 96 % of control
[11]
  T/C: 92 % of control
[12]
  T/C: 114 % of control

## CN(C)NC(=O)C(c1ccccc1)c1ccccc1
dose: 25.0 mg/kg/injection, schedule: Q04DX003 (ip), vehicle: saline with Tween-80
  T/C: 100 % of control
dose: 50.0 mg/kg/injection, schedule: Q04DX003 (ip), vehicle: saline with Tween-80
  T/C: 97 % of control
[13]
  T/C: 92 % of control and 97 % of control

## CC1CC(C)(C)N=C(C(C)(C)c2ccccc2)O1 (stereo unspecified)
dose: 100.0 mg/kg/injection, schedule: Q04DX003 (ip), vehicle: saline sonified
  T/C: 102 % of control
dose: 200.0 mg/kg/injection, schedule: Q04DX003 (ip), vehicle: saline sonified
  T/C: 103 % of control
dose: 400.0 mg/kg/injection, schedule: Q04DX003 (ip), vehicle: saline sonified
  T/C: 98 % of control

## C=CN(C=C)P(=O)(C1C(=O)C(C(=O)OCC)C(c2ccc(OC(C)=O)cc2)C(C(=O)OCC)C1=O)C1C(=O)C(C(=O)OCC)C(c2ccc(OC(C)=O)cc2)C(C(=O)OCC)C1=O (stereo unspecified)
[13]
  T/C: 97 % of control
dose: 200.0 mg/kg/injection, schedule: Q04DX003 (ip), vehicle: saline with Tween-80
  T/C: 96 % of control
dose: 400.0 mg/kg/injection, schedule: Q04DX003 (ip), vehicle: saline with Tween-80
  T/C: 100 % of control

## O=P(NC12CC3CC(CC(C3)C1)C2)(OCc1ccccc1)OCc1ccccc1
dose: 75.0 mg/kg/injection, schedule: Q01DX009 (ip), vehicle: Klucel (hydroxypropylcellulose) (HPC)
  T/C: 97 % of control
dose: 150.0 mg/kg/injection, schedule: Q01DX009 (ip), vehicle: Klucel (hydroxypropylcellulose) (HPC)
  T/C: 90 % of control
dose: 300.0 mg/kg/injection, schedule: Q01DX009 (ip), vehicle: Klucel (hydroxypropylcellulose) (HPC)
  T/C: 95 % of control
